We go through one compound from US20030220211A1, “Methods, compositions, and articles for control of malodor produced by urea-containing body fluids” (The Procter & Gamble Company, priority 2000, published 2003).

One test has as its system urine malodor. The note with it: 5 mMol/liter solution, 250 ml sprayed once per day for 11 days over 4 m^2 (105 mg/m^2).
For test [1], the target named is T1, Urease (Type III from jack beans) (Canavalia ensiformis, UniProt P07374).
T1 construct: purchased Sigma U-1500
The test is described as follows: Ammonia odor detection on paper towel sheets treated with urea and urease solution. It is filed as biochemical. The conditions noted are these: paper towel sheet, 15 drops CuHEDTA Test Solution (urea 2M/tris + Cu/HEDTA complex solution 125 mM) + 2 drops urease solution; after 30 minutes at room temperature; smell. The protocol:
In such a test, conventional paper towel sheets are treated with both a urea solution and a urease solution. One such sheet serves as a reference sheet; another such sheet is treated with a urease solution which also contains a complex of copper chelated with N-(2-hydroxyethyl)ethylenediamine triacetic acid. After 30 minutes at room temperature, the sheets are evaluated for detectable ammonia order.
Dissolve 2.42 g of trizma-base in about 80 mL H2O deionized, adjust the pH to 7.5 with HCL 1M, bring to 100 mL with H2O deionized.
Dissolve 6 g of Urea in 50 mL of this buffer 0.2M, pH 7.5
Dissolve 2.13 g of CuCl in 50 mL of H2O deionized.
Dissolve 2.15 g of HEDTA in 25 mL of H2O deionized
Cu/HEDTA complex solution (125 mM)
Mix 25 ml of CuCl2 solution (250 mM) with 25 mL HEDTA solution (250 mM)at adjusted with NaOH to pH around 7
Urease solution (10 mg/mL)
Weigh 0.020 g of urease and add 3 mL of tris buffer pH 7.5, 0.2M. This solution is stable for about 1 week provided it is stored at 4° C. in a refrigerator.
10 mL urea 2M/tris+500 mL of H2O deionized buffer.
10 mL Urea 2M/tris+500 mL Cu/TED complex solution buffer (125 mM)
Half of a white BOUNTY™® towel sheet is put in each of two Petri dishes. Into one dish, 15 drops of the reference solution are poured evenly so that the center of the towel sheet is evenly wet. […]

SMILES strings stand for the structures.

T1 sequence (P07374 whole entry, looked up): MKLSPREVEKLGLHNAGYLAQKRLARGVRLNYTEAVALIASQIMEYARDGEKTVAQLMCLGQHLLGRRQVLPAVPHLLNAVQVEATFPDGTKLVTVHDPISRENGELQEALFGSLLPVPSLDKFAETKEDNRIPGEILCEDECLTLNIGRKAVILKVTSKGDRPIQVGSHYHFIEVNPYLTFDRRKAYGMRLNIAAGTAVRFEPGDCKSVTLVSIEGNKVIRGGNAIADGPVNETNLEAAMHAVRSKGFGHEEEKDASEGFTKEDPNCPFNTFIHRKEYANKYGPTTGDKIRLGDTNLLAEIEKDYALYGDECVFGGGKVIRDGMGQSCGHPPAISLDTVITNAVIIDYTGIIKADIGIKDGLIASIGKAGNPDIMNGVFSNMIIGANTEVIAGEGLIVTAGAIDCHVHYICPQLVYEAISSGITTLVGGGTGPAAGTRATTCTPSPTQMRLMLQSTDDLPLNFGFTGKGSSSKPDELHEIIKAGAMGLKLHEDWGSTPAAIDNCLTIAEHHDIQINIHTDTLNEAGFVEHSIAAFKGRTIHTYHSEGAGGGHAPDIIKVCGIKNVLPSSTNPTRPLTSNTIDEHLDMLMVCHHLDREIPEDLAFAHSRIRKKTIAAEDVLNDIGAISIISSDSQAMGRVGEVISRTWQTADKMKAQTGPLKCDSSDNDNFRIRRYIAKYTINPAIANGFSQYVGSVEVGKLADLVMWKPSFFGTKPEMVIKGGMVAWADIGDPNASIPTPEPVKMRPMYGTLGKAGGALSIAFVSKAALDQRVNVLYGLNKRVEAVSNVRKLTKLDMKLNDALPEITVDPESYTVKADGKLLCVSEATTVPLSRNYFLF
Method for urine malodor: A liquid product for treating hard surfaces is prepared and tested by spraying the product on walls, floors and other surfaces surrounding the urinals in a public men's restroom. Product preparation, use and test results are as follows:
A 5 mMol/liter solution of CuHEDTA is prepared from:
1721 mg of HEDTA (trisodium salt hydrate, MW=344.21);
1250 mg of CuSO4 (pentahydrate, MW=250);
1000 ml of deionized water.
Using a spray-gun, 250 ml of this solution is sprayed once per day for 11 days over a 4 m^2 area surrounding the urinals in a public men's restroom.

Turning to `O=C([O-])CN(CCN(CCO)CC(=O)O)CC(=O)[O-].[Cu+2]` [CuHEDTA, copper salt of N-hydroxyethyl-ethylenediamine-triacetic acid], the “urine malodor control in the men's restroom” value in the test with urine malodor is on record as “effectively controlled for the full 11 day period”. In addition, in test [1], the detectable ammonia odor entry is “No ammonia odor is detectable”.
